Measured values reported in patent US9815815B2, “Non-selective kinase inhibitors” (GILEAD SCIENCES, INC., priority 2013, dated 2017).
Marks after values point to notes of the source that are not given here.

Columns and labels:
[1] = Two-chamber plethysmography in the rat MCT+PN model; assay type: in vivo; design: SRaw: unit not given beside the values
Protocol: Plethysmography. Plethysmography was performed with an EMKA dual chamber plethysmograph and IOX software. Parameters measured included breathing frequency, tidal volume, minute ventilation, peak inspiratory and expiratory flow, and airway resistance (SRaw). Animals were acclimatized to the plethysmograph for three days prior to first data acquisition. Measurements were made prior to the first dose of drug and at the end of the study.

[2] = test system: AKT; test: NanoPro immunoassay pAKT/AKT in lung extracts, MCT+PN model; assay type: in vivo, rat
[3] = test system: PDGFBB stimulated AKT phosphorylation; test: In cell Western (ICW), PDGFBB stimulated AKT phosphorylation in human fetal lung fibroblasts; assay type: cell-based; conditions: comparison in words
Protocol: In cell Western (ICW). […] HLFs were maintained in subculture at no more than 6 passages in DMEM with 5% FBS and 4 mM Glutamax at 37° C., 5% CO2. HLFs were plated and grown to 70-80% confluence in 96 well plates then serum-starved for 48 hours. […] Antibodies were detected using IRDye 680LT goat anti-mouse IgG and IRDye 800W goat a-rabbit IgG conjugated antibodies. After washing, the signal was quantified using an Odyssey Infrared Imaging System (LI-COR). Phosphoprotein signal (800 nm) was normalized to total protein signal (700 nm) acquired from each well and experimental duplicates on same plate were averaged and reported.

[4] = test system: PDGFAA stimulated phosphorylation of ERK1 and ERK2; test: PDGFAA stimulated phosphorylation of ERK1 and ERK2 in human fetal lung fibroblasts; assay type: cell-based; conditions: 1 uM
[5] = target: PDGFRbeta (Homo sapiens, UniProt P09619); test: biochemical
Protocol: (§1) In vitro kinase assay. A Z-lyte kinase assay was performed to determine the inhibition of PDGFRalpha and PDGFRbeta mediated phosphorylation by PK10453 (Structure 2). Ten point titration curves were modeled to calculate the IC50 (Invitrogen Select Screen®).

[6] = target: PDGFRalpha (Homo sapiens, UniProt P16234); test: biochemical
Protocol: as §1

[7] = test system: rat MCT model; test: PK10453 dose response study in the rat MCT model; assay type: in vivo
Protocol: Efficacy study in the rat MCT model—PK10453 (Structure 2) dose response study in the rat MCT Model. Male Sprague Dawley rats received MCT 60 mg/kg IPMCT, and after 3 weeks, PK10453 (Structure 2) or vehicle control were administered by inhalation. Four groups were studied: vehicle control (4 min exposure) and three treatment groups of PK10453 (Structure 2) with exposure times 2 min (D2), 4 min (D4), or 8 min (D8) three times a day. These regimens were administered for two weeks. The vehicle consisted of aerosolized 1M tosylic acid neutralized with ammonia vapor as described above. The pH of a solution prepared by dissolving captured aerosol particles in water was measured for every dose and was consistently in the range of 5.5-6.0. At the end of the study, the RV systolic pressure was measured, and the heart chambers dissected and weighed.

[8] = Body weight of treated subjects; assay type: in vivo, rat; conditions: treated vs. vehicle groups

Chain of PDGFRbeta (P09619 33-1106): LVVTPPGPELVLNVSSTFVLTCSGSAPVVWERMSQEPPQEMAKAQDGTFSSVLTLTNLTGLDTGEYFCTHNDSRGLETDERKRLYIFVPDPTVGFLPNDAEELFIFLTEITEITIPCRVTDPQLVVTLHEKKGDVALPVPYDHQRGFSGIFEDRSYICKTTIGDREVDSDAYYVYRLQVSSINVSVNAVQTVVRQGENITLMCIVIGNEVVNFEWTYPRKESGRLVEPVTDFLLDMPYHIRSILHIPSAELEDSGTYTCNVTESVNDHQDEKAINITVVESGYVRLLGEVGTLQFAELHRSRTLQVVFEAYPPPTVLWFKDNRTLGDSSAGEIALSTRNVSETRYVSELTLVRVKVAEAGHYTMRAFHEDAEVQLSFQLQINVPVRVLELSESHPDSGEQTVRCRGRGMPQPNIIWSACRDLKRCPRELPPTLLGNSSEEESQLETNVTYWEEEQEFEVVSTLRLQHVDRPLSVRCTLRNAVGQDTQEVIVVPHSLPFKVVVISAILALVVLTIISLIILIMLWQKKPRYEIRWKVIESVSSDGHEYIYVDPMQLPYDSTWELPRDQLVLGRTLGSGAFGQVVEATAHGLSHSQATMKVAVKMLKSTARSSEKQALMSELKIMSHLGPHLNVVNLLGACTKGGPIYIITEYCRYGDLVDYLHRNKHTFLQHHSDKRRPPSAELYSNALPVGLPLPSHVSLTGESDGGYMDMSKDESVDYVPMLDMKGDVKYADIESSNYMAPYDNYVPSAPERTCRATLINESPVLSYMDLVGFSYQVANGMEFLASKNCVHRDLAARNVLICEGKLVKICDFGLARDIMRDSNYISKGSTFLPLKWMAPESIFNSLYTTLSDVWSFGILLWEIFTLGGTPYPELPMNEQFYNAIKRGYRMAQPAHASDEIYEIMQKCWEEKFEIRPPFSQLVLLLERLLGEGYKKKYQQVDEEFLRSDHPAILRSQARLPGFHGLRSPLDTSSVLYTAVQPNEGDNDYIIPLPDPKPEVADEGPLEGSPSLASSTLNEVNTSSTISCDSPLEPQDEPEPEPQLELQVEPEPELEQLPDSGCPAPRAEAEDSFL
Chain of PDGFRalpha (P16234 24-1089): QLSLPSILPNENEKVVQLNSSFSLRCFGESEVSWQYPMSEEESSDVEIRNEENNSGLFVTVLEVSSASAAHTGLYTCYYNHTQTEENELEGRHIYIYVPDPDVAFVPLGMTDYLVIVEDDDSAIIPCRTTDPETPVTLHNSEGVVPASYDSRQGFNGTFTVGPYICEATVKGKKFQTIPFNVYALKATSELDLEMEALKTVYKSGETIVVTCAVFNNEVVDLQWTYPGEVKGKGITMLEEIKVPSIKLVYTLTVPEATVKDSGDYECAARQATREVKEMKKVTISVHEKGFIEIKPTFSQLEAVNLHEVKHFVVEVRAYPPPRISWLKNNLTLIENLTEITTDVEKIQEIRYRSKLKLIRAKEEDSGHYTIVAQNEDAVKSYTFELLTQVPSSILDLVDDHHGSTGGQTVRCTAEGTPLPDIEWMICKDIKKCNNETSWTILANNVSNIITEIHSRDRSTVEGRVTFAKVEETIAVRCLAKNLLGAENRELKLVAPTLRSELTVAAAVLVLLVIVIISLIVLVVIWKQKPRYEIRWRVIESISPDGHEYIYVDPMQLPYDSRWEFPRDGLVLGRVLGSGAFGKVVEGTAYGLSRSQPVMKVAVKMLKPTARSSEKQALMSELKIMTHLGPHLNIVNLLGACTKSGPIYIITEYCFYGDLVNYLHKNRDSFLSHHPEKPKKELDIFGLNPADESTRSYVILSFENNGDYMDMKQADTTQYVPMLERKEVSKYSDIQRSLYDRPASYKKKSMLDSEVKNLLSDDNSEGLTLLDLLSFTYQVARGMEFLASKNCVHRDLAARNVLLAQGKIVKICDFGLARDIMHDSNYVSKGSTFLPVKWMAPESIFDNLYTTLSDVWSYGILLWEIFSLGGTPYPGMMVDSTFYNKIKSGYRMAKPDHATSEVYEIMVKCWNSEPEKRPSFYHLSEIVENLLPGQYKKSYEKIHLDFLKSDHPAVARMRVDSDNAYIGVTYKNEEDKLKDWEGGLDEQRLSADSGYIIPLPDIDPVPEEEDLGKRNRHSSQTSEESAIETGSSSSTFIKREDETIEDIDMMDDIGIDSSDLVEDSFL

## COc1cc(-c2cncc(N[C@@H](C)c3cccc(NC(=O)c4cncc(C)c4)c3)n2)ccc1O [PK10453, (S)-N-(3-(1-((6-(4-hydroxy-3-methoxyphenyl)pyrazin-2yl)amino)ethyl)phenyl)-5-methylnicotinamide]
[1]; day 1, D4, mean
  MV: 223.24 mL/min
  PEF: 11.04
  PIF: 9.82
  SRaw: 39.73
  TV: 1.00 mL
  f: 224.68 breaths per minute
[1]; day 1, D8, mean
  MV: 174.68 mL/min
  PEF: 9.43
  PIF: 8.54
  SRaw: 36.01
  TV: 0.74 mL
  f: 259.13 breaths per minute
[1]; day 15, D4, mean
  MV: 176.12§
  PEF: 9.33*
  PIF: 7.82*
  SRaw: 33.09
  TV: 0.85
  f: 217.12 breaths per minute
[1]; day 15, D8, mean
  MV: 128.49
  PEF: 6.64
  PIF: 6.06
  SRaw: 49.26
  TV: 0.63
  f: 232.11 breaths per minute
[1]; inhaled, 2-wk course
  effect on lung function, in words: did not adversely affect lung function
[2]; D4, D8 vs vehicle
  pAKT(Thr308)/AKT ratio in lung extracts: not significantly different
[2]; treated vs vehicle
  pAKT(Ser473)/AKT ratio in lung extracts: significant reduction
[3]
  IC50 for inhibiting PDGFBB stimulated AKT phosphorylation, compared to imatinib: lower IC50 concentrations compared to imatinib
[4]
  decreasing PDGF AA stimulated ppERK1 and ppERK2 formation: equally effective
[5]
  IC50: 10.1 nM
[6]
  IC50: 35 nM
[7]; D4
  reduction in RVSP compared to the vehicle treated group: 44%
[7]; D8
  reduction in RVSP compared to the vehicle treated group: 54%
[7]; inhalation, two weeks, in words
  RV hypertrophy, ratio (RV+IVS)/LV weight: significant reduction
[7]; rat MCT model, inhalation
  decrease of RV systolic pressure: 50%
[8]
  body weight, in words: trend to a slower rate of decline in body weight
